This is an account of results in PubChem BioAssay (NCI).

Among the test systems are M14 melanoma; UACC-62 melanoma; OVCAR-5 ovarian; PC-3 prostate; U251 CNS; SR leukemia; NCI-H460 lung; NCI-H522 lung; MALME-3M melanoma; T-47D breast.
Holding throughout (test): inhibition of tumour cell growth, NCI panel, 48 h

Values after ≈ are worked out from the molar mass of the structure shown. Values joined by “and” are separate entries in the source; they are usually repeats but may differ in a detail not shown here. Equal entries are not always repeated.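 A five-concentration, 48-hour dose response in 96-well plates underlies each endpoint, interpolated linearly between surrounding concentrations. GI50: concentration for 50% inhibition of growth. Definition used: TGI = concentration required for complete inhibition of growth.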 Bounds are passed on as bounds.

Consider `N[C@H]1CCN(c2c(F)cc3c(=O)c(C(=O)O)cn4c3c2Oc2cc3c(ccc5ccccc53)cc2-4)C1`, for which the TGI with M14 melanoma is greater than 100 µM; with UACC-62 melanoma it was greater than 100 µM; with OVCAR-5 ovarian, greater than 100 µM; in the assay with PC-3 prostate, 6.34 µM; in the assay on U251 CNS, 5.02 µM; in the assay with SR leukemia, greater than 100 µM. Moreover, the values for the TGI in the assay on NCI-H460 lung, with NCI-H522 lung and with MALME-3M melanoma were 5.28 µM, greater than 100 µM and greater than 100 µM, respectively.
Turning to `NCCNc1nc(N2CCCC2)c2nc(Cl)c(NCc3ccccc3)nc2n1`, the TGI with M14 melanoma was found to be 3.16 µM; in the assay with UACC-62 melanoma, 3.19 µM; in the assay with OVCAR-5 ovarian it was 7.88 µM; in the assay on PC-3 prostate, 7.62 µM; with U251 CNS, 2.87 µM; in the assay on SR leukemia it was 2.95 µM. Further, the TGI came out at 3.54 µM with NCI-H460 lung, 3.31 µM in the assay on NCI-H522 lung, 3.73 µM in the assay with MALME-3M melanoma and 3.79 µM in the assay on T-47D breast.
In the case of `O=C(O)C(CSC(c1ccccc1)(c1ccccc1)c1ccccc1)N=Cc1cccs1` (stereo not drawn), the TGI was 5.11 µM with M14 melanoma; greater than 78.3 µM in the assay with UACC-62 melanoma; greater than 100 µM in the assay on OVCAR-5 ovarian; greater than 42.4 µM with PC-3 prostate; greater than 62.4 µM in the assay on U251 CNS; greater than 100 µM in the assay with SR leukemia. In addition, the TGI with NCI-H460 lung is greater than 48.9 µM; with NCI-H522 lung, greater than 20.1 µM; in the assay with MALME-3M melanoma, greater than 69.5 µM; with T-47D breast, greater than 100 µM.
For `CC(Sc1ccccc1)C(CO)(CO)[N+](=O)[O-]` (stereo not drawn), the TGI with M14 melanoma is 32.9 µM; with UACC-62 melanoma, 29.9 µM; with OVCAR-5 ovarian, 36.9 µM; in the assay on U251 CNS it was 26 µM; with SR leukemia, 5.72 µM; in the assay with NCI-H460 lung it was 50.7 µM. For the same compound, the TGI was determined as 26.3 µM in the assay with NCI-H522 lung and 38.7 µM with MALME-3M melanoma.
For `CC[C@@]1(O)C(=O)OCc2c1cc1n(c2=O)Cc2c-1nc1ccc(O)cc1c2CC[Si](C)(C)C`, the TGI was 0.0151 µM with M14 melanoma; 0.0172 µM and 0.0149 µM in the assay on UACC-62 melanoma; 0.267 µM and 0.375 µM in the assay with OVCAR-5 ovarian; greater than 100 µM in the assay on PC-3 prostate; less than 0.001 µM with SR leukemia; 0.00445 µM and 0.0117 µM in the assay with NCI-H460 lung. For the same compound, the TGI was found to be 0.299 µM in the assay on NCI-H522 lung and 1.41 µM in the assay with MALME-3M melanoma. Further, the GI50 with PC-3 prostate is 0.0525 µM.
Turning to `CN1C2CCC1C(C(O)c1ccccc1[N+](=O)[O-])C(=O)C2` (stereo not drawn), the TGI in the assay on M14 melanoma, with UACC-62 melanoma, in the assay with OVCAR-5 ovarian, in the assay with PC-3 prostate, in the assay on U251 CNS and in the assay with NCI-H460 lung was greater than 100 µM in each case. In addition, the TGI was greater than 100 µM with NCI-H522 lung, greater than 100 µM in the assay with MALME-3M melanoma and 87.7 µM with T-47D breast.
For the compound `COC(=O)C1C(C)N1C` (stereo not drawn), the TGI in the assay with M14 melanoma, in the assay with UACC-62 melanoma, in the assay with U251 CNS, in the assay on NCI-H460 lung and in the assay with NCI-H522 lung was greater than 100 µM in each case.
On to `O=S1(=O)OC(c2ccc(O)cc2)(c2ccc(O)cc2)c2ccccc21`, for which the TGI in the assay with M14 melanoma, in the assay with UACC-62 melanoma, with OVCAR-5 ovarian, in the assay with PC-3 prostate, in the assay on U251 CNS and in the assay on NCI-H460 lung was greater than 100 µM in each case. Further, the TGI in the assay on NCI-H522 lung, in the assay with MALME-3M melanoma and in the assay on T-47D breast was greater than 100 µM in each case.
For the compound `Nc1nc(N)c2c(n1)NC(c1ccccc1)CC(/C=C/c1ccc(Cl)cc1)=N2` (stereo not drawn), the TGI is 28.3 µM with M14 melanoma; 25 µM in the assay on UACC-62 melanoma; 32.5 µM with OVCAR-5 ovarian; 22 µM in the assay on PC-3 prostate; greater than 100 µM with U251 CNS; 18 µM with NCI-H460 lung. The values for the TGI in the assay with NCI-H522 lung, with MALME-3M melanoma and in the assay with T-47D breast were 5.32 µM, 32.7 µM and 30.8 µM, respectively.
For `CC(=O)N(C)c1ccc2c(ccc[n+]2[O-])c1[N+](=O)[O-]`, the TGI in the assay with M14 melanoma, with UACC-62 melanoma, in the assay with OVCAR-5 ovarian, in the assay with U251 CNS, in the assay on NCI-H460 lung and in the assay with MALME-3M melanoma was greater than 100 µM in each case.
On to `O=[n+]1c2c(n([O-])c3ccccc31)-c1cccc3cccc-2c13`, for which the TGI in the assay with M14 melanoma, with PC-3 prostate, with U251 CNS, in the assay with SR leukemia, in the assay on NCI-H460 lung and with NCI-H522 lung was greater than 100 µM throughout. In addition, in the assay on T-47D breast, the TGI was greater than 100 µM.
In the case of `Nc1ccc2c(c1)C(=O)N(O)C2=O`, the TGI in the assay with M14 melanoma, in the assay with UACC-62 melanoma, in the assay with OVCAR-5 ovarian, in the assay with U251 CNS, in the assay with SR leukemia and in the assay with NCI-H460 lung was greater than 100 µM throughout. The compound further came in with a TGI with MALME-3M melanoma greater than 100 µM.
Turning to `C[C@]12CC[C@@H]3c4ccccc4CC[C@H]3[C@@H]1CC[C@@H]2O`, the TGI in the assay with M14 melanoma, in the assay on UACC-62 melanoma, with U251 CNS, in the assay on SR leukemia, with NCI-H460 lung and with NCI-H522 lung was greater than 100 µM each time. The same compound registered a TGI in the assay with MALME-3M melanoma greater than 100 µM.
On to `CC1(C)CC(=O)C2=C(C1)NC(SSC1=C(C#N)C(c3ccc(F)cc3)C3=C(CC(C)(C)CC3=O)N1)=C(C#N)C2c1ccc(F)cc1` (stereo not drawn), for which the GI50 was 22.6 µg/mL (≈ 34.5 µM) in the assay on M14 melanoma; 23.7 µg/mL (≈ 36.2 µM) with UACC-62 melanoma; 106 µg/mL (≈ 162 µM) with OVCAR-5 ovarian; 27.1 µg/mL in the assay on PC-3 prostate; 15 µg/mL (≈ 22.9 µM) in the assay with U251 CNS; 48.9 µg/mL (≈ 74.6 µM) in the assay with SR leukemia. Besides, the figures for the GI50 with NCI-H460 lung, with MALME-3M melanoma and in the assay on T-47D breast were 47.8 µg/mL (≈ 73 µM), 31.8 µg/mL (≈ 48.5 µM) and 15 µg/mL (≈ 22.9 µM), respectively. The TGI with M14 melanoma was 49.5 µg/mL; in the assay with UACC-62 melanoma it was 43.9 µg/mL; in the assay with OVCAR-5 ovarian, greater than 150 µg/mL; in the assay with PC-3 prostate it was 48 µg/mL; in the assay with U251 CNS, 15 µg/mL; in the assay on SR leukemia, greater than 150 µg/mL. Besides, the TGI is greater than 150 µg/mL in the assay on NCI-H460 lung, 56.6 µg/mL in the assay on MALME-3M melanoma and 15 µg/mL in the assay with T-47D breast.
